pKi: −log10 of the molar value. Read-outs that look alike come from different tables or passages of the source. One block for each compound: values may come before it.
How the values were obtained:
[1] = target: T1, Porcine Dipeptidyl Peptidase IV (Sus scrofa, UniProt P22411); experiment: Assay of Porcine Dipeptidyl Peptidase IV, steady-state inhibition constants (Ki); assay type: biochemical; settings: DPP-IV
T1 construct: left at 37° C. for 18 hours to facilitate cleavage of DPP-4 from cell membranes; from tissue; host or cells: pig kidney cortex
T1 sequence (P22411 38-766 limits assumed): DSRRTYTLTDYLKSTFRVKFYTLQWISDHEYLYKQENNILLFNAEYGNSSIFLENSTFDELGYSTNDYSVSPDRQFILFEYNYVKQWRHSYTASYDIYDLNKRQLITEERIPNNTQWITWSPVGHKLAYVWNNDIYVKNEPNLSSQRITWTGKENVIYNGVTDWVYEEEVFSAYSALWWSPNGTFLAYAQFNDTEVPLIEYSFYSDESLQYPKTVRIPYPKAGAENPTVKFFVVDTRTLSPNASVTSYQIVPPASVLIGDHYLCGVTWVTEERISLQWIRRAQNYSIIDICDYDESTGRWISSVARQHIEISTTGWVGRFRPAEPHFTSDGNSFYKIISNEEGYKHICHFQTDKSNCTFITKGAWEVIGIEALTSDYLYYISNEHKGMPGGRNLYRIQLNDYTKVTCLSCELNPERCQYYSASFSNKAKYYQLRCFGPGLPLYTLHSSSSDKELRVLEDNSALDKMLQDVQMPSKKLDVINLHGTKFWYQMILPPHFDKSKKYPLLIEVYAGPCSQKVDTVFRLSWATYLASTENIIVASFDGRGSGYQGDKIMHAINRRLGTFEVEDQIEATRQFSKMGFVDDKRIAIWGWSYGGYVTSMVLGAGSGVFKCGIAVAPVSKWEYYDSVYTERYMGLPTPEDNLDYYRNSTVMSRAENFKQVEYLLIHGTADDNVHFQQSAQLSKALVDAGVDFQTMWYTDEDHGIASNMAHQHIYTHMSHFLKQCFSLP
Description: DPP-4 inhibitor activity of the compounds of the invention may be determined by use of an in vitro assay system which measures the potentiation of inhibition of DPP-4.
Porcine enzyme was purified as previously described in reference (2) below, with several modifications. Kidneys from 15-20 animals were obtained, and the cortex was dissected away and frozen at −80° C. Frozen tissue (2000-2500 g) was homogenized in 12 L of 0.25 M sucrose in a Waring blender. The homogenate then was left at 37° C. for 18 hours to facilitate cleavage of DPP-4 from cell membranes. After the cleavage step, the homogenate was clarified by centrifugation at 7000×g for 20 min at 4° C., and the supernatant was collected. […]
After dialysis against 20 mM Na2HPO4, pH 7.4, the preparation was clarified by centrifugation at 10,000×g. […] Purity of column fractions was analyzed by reducing SDS-PAGE, and the purest fractions were pooled and concentrated. […]
Enzyme was assayed under steady-state conditions as previously described in reference (2) below with gly-pro-p-nitroanilide as substrate, with the following modifications. […] A standard curve for p-nitroaniline absorbance was obtained at the beginning of each experiment, and enzyme catalyzed p-nitroaniline production was quantitated from the standard curve. […]

plasma DPP-IV = target: T2, plasma DPP-IV (Rattus norvegicus, UniProt P14740); experiment: Rat ex vivo plasma DPP-IV inhibition assay; assay type: in vivo, Zucker fa/fa rat; settings: oral; for inhibition at 3 µmol/kg: rat, 3 μmol/kg
T2 construct: from tissue; host or cells: plasma of male Zucker fa/fa rats (Harlan)
T2 sequence (P14740 37-767 limits assumed): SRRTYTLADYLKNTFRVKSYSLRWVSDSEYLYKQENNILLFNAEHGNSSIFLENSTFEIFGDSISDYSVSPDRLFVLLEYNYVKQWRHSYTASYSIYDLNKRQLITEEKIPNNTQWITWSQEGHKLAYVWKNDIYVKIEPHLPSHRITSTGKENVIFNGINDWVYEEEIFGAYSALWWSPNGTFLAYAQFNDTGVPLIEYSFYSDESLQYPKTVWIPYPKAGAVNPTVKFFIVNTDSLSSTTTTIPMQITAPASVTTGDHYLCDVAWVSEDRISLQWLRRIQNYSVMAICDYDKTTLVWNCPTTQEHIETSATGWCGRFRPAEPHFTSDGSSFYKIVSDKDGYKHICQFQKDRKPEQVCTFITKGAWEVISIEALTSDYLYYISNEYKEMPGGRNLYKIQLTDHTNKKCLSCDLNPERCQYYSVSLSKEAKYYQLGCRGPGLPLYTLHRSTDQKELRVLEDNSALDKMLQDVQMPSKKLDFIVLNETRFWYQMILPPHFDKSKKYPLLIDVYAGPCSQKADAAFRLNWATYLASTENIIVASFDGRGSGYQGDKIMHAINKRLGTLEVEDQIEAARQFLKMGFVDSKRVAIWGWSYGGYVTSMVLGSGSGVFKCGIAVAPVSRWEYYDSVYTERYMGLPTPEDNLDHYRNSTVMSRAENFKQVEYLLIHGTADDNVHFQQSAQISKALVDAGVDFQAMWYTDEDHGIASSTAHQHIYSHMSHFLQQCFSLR

Zucker^fa/fa rat = experiment: Oral glucose tolerance test (OGTT) in Zucker fa/fa rats; assay type: in vivo; settings: for glucose control after oral glucose challenge (in words): rodent model of impaired glucose homeostasis
Excerpt: In vivo evaluation of DPP-IV inhibitors has supported the connection between DPP-IV inhibition, increases in plasma insulin levels, and an improvement in glucose tolerance.^1 Several compounds in the present series are potent inhibitors of DPP-IV in vitro. As such, these inhibitors were selected to determine the effects of DPP-IV inhibition ex vivo and on glucose tolerance in Zucker^fa/fa rat. The Zucker^fa/fa rat is a frequently used model in type II diabetes and obesity research. […] Plasma glucose levels were then monitored over a 2 h period. Columns 3 and 4 show the ex vivo plasma DPP-IV inhibition activity. […] In contrast, the adamantyl inhibitors show good inhibitory activity in the ex vivo assay, even at extended time points.
Male Zucker^fa/fa rats (Harlan) weighing between 400 and 450 g were housed in a room that was maintained on a 12 h light /dark cycle and were allowed free access to normal rodent chow and tap water. The day before the experiment, the rats were weighed and divided into control and treated groups of six. Rats were fasted 17 h prior to the start of the study. […] Two blood samples were collected at −30 and 0 min by tail bleed. Glucose (2 g/kg) was administered orally at 0 min. Additional blood samples were collected at 15, 30, 60, 90 and 120 min. Blood samples were collected into EDTA containing tubes from Starstedt. Plasma glucose was determined by Cobas Mira (Roche Diagnostics) by the glucose oxidation method.

[2] = Solution stability of 2-cyano-pyrrolidines; assay type: physicochemical
Description: In experiments at pH=7.2 and 39° C., the greater degree of β-branching the greater degree of stability associated with the compound. […] These are depected in the table below.

Compound: tert-Leucine-cyanopyrrolide
- times more stable than Ref. Std. 1 ([2]; pH=7.2, 39° C., ratio of t1/2): ~6

Compound: N#C[C@@H]1CCCC1C(=O)C(N)C12CC3CC(CC(O)(C3)C1)C2 (stereo partly shown) [Example 9]
- glucose control after oral glucose challenge (in words) (Zucker^fa/fa rat): good glucose control

Further lines, with some results ahead:

- pKi [1]: 6.88
- inhibition at 3 µmol/kg (plasma DPP-IV; 0.5 h post dose, read-out: % Inhibition in Rat Ex Vivo assay 3 μmol/kg 0.5 h post dose): 70%
- inhibition at 3 µmol/kg (plasma DPP-IV; 4 h post dose, read-out: % Inhibition in Rat Ex Vivo assay 3 μmol/kg 4 h post dose): 66%
Compound: CC12CC3(C)CC(O)(C1)CC([C@H](N)C(=O)N1CCCC1)(C2)C3 [Example 5, (3-hydroxy-5,7-dimethyladamant-1-yl)-glycine pyrrolidine amide]
- Glucose Lowering at 4 h; % AUC's, compared to control (Zucker^fa/fa rat; oral, 3 μmol/kg, oral glucose 2 g/kg): −39%

- half-life ([2]; pH 7.2): 5 h
Compound: CC[C@H](C)[C@H](N)C(=O)N1CCC[C@H]1C#N [Ref. Std 1, iso-Leucine-cyanopyrrolide]
- Glucose Lowering at 4 h; % AUC's, compared to control (Zucker^fa/fa rat; dosed at 16 μm/kg): −11%
- Glucose Lowering at 4 h; % AUC's, compared to control (Zucker^fa/fa rat; dosed at 200 μm/kg): −19%
- glucose control after oral glucose challenge (in words) (Zucker^fa/fa rat): only a slight change in glucose control

- pKi [1]: 7.77
- % Inhibition in Rat Ex Vivo assay 3 μmol/kg 0.5 h post dose (plasma DPP-IV; 0.5 h post dose): 80%
- % Inhibition in Rat Ex Vivo assay 3 μmol/kg 4 h post dose (plasma DPP-IV; 4 h post dose): 67%
Compound: N#CC1CC2CC2N1C(=O)[C@@H](N)C12CC3CC(O)(CC(O)(C3)C1)C2.O=C(O)C(F)(F)F (stereo in doubt) [Example 8, (S)-3,5-Dihydroxyadamantylglycine-L-cis-4,5-methanoprolinenitrile TFA salt]

Source: US6995183B2, “Adamantylglycine-based inhibitors of dipeptidyl peptidase IV and methods” (Bristol Myers Squibb Company, priority 2003, dated 2006)
